The record followed here is patent publication US6323340A, “Phthalocyanine compound, method for production thereof, and near infrared absorption dye using the compound” (Nippon Shobukai Co., Ltd., priority 1999, dated 2001).

Data set [1] is described as follows: maximum absorption wavelength and absorptivity coefficient in toluene (spectrophotometer). The format is physicochemical. Conditions: for Absorptivity Coefficient ε: at maximum absorption wavelength. On the procedure: By the use of a spectrophotometer (Shimadzu Seisakusho Ltd., UV-3100), the phthalocyanine compound obtained in this example [VOPc(2,5-Cl2 PhO)8 (2,6-Br2 -4-CH3 PhO)4 {Ph(CH3)CHNH}3 F] was tested for the maximum absorption wavelength and the absorptivity coefficient in toluene.

A short description of data set [2]: transmittance to the visible ray of chloroform solution (JIS R3106). The format is physicochemical. To be noted: 1 cm quartz cell, lowest transmittance at 750 to 1050 nm set to 5 to 6%.
Description: In a quartz cell of 1 cm, this phthalocyanine compound was diluted with chloroform until the lowest value of the transmittance at 750 to 1050 nm reached a level in the range of 5 to 6%.
A short description of data set [3]: solubility in toluene and methylethyl ketone at room temperature. To be noted: 25° C.
Description: At a room temperature (25° C.), the phthalocyanine compound was gradually dissolved in each the solutions of toluene and methylethyl ketone (MEK) (each 10 ml in volume). The solutions in the process of dissolving the compound were visually examined to find the finally dissolved amounts of the compound, i.e. the concentrations (solubility) of the phthalocyanine compound as a solute in the saturated solutions.

For the substance “CuPc(2,5-Cl2 PhO)8 (2,6-(CH3)2 PhO)4 (PhCH2 NH)4 [Example 8]”, in data set [1], the “Maximum Absorption Wavelength” value is reported as 810 nm and the “Absorptivity Coefficient ε” value was determined as 154000. The “Transmittance to Visible Ray” value in data set [2] worked out at 85%.

With “VOPc(2,5-Cl2 PhO)8 (2,6-(CH3)2 PhO)4 {Ph(CH3)CHNH}3 F [Example 3]”, in data set [1], the “Maximum Absorption Wavelength” value is listed as 834 nm and the “Absorptivity Coefficient ε” value amounted to 84000. The “Transmittance to Visible Ray” value in data set [2] is 82%.

Turning to “VOPc(2,5-Cl2 PhO)8 (2,6-(CH3)2 Pho)4 (PhCH2 NH)4 [Example 7]”, in data set [1], the “Maximum Absorption Wavelength” value is 880 nm and the “Absorptivity Coefficient ε” value was found to be 128200. Further, the “Transmittance to Visible Ray” value in data set [2] is reported as 83%.

As to “VOPc(2,5-Cl2 PhO)8 (2,6-Br2 -4-CH3 PhO)4 {Ph(CH3)CHNH}3 F [Example 1]”, in data set [1], the “Maximum Absorption Wavelength” value turned out to be 835 nm and the “Absorptivity Coefficient ε” value was determined as 76000. Besides, in data set [2], the “Transmittance to Visible Ray” value came to 79%.

For “VOPc(2,5-Cl2 PhO)8 (2,6-Br2 -4-CH3 PhO)4 {PhCH2 NH}3 F [Example 2]”, in data set [1], the “Maximum Absorption Wavelength” value is on record as 840 nm and the “Absorptivity Coefficient ε” value came to 68000. For the same substance, the “Transmittance to Visible Ray” value in data set [2] is 81%.

With “VOPc(2,6-Cl2 PhO)8 (2,6-(CH3)2 PhO)4 {Ph(CH3)CHNH}3 F [Example 4]”, in data set [1], the “Maximum Absorption Wavelength” value stood at 835 nm and the “Absorptivity Coefficient ε” value came out at 92000. Also, in data set [2], the “Transmittance to Visible Ray” value is 83%.

As to “VOPc(4-CNPhO)8 (2,6-(CH3)2 PhO)4 {Ph(CH3)CHNH}3 F [Example 6]”, in data set [1], the “Maximum Absorption Wavelength” value was found to be 834 nm and the “Absorptivity Coefficient ε” value stood at 83000. Further, the “Solubility MEK” value in data set [3] (methylethyl ketone) is given as “.circleincircle. (a solubility of not less than 5% by weight)”. Besides, in data set [3] (toluene), the “Solubility Toluene” value was “.circleincircle. (a solubility of not less than 5% by weight)”. The “Transmittance to Visible Ray” value in data set [2] was 81%.

On to “VOPc(4-CNPhO)8 (2,6-Br2 -4-CH3 PhO)4 {Ph(CH3)CHNH}3 F [Example 5]”, for which, in data set [1], the “Maximum Absorption Wavelength” value came to 836 nm and the “Absorptivity Coefficient ε” value came to 72000. In addition, the “Transmittance to Visible Ray” value in data set [2] is reported as 80%.

For “VOPc(PhNH)8 (PhS)8 [Control 1, reference compound]”, in data set [1], the “Maximum Absorption Wavelength” value turned out to be 950 nm. Besides, in data set [2], the “Transmittance to Visible Ray” value was found to be 50%.

“VOPc(PhS)8 (2,6-(CH3)2 PhO)4 (PhCH2 NH)4 [Example 9]”: in data set [1], the “Maximum Absorption Wavelength” value was 920 nm and the “Absorptivity Coefficient ε” value is 130800. In data set [2], the “Transmittance to Visible Ray” value amounted to 79%.

Regarding “octafluoro-octakisanilino oxyvanadium phthalocyanine [Control 2, reference compound]”, in data set [1], the “Maximum Absorption Wavelength” value is given as 860 nm. Moreover, the “Transmittance to Visible Ray” value in data set [2] was determined as 48%.
